Test results as given in patent publication US20050100595A1, “Methods for micronization of hydrophobic drugs” (Brown University Research Foundation, priority 2001, published 2005).

Key:
[1] = Scanning electron microscopy of dicumarol formulations; assay type: physicochemical
Description: Scanning Electron Microscopy: All samples were sputter-coated with an Au—Pd target for 3.5 minutes and spread out on a carbon-backed adhesive disc on top of the SEM stub. The Hitachi 2700 was used to visualize the samples at an accelerating voltage of 8 kV.

in vivo = settings: rat, 25 mg/kg
Description: Rats were anesthetized using isoflurane gas.
Non-compartmental pharmacokinetics were assumed.

[2] = Coulter particle size analysis (laser-light diffractometry, volume statistics); assay type: physicochemical
Description: A 250 μg/mL suspension of microspheres in 1% pluronic F127 [poly(ethylene oxide)-b-poly(propylene oxide)-b-poly(ethylene oxide)]/1% hydroxypropylmethylcellulose (HPMC) was introduced into the small volume fluid module. Only the Coulter output based on volume measurements was used for analysis.

[3] = Dicumarol loading by NaOH extraction; assay type: physicochemical; settings: dicumarol content by NaOH extraction
Description: 100 mg p(FA:SA) 17:83 was dissolved in this solution by sonicating for an additional 30 s. The resultant solution was dispersed into 1.0 L petroleum ether and the precipitate was collected using a 100 nm filter composed of mixed-cellulose esters. The microsphere formulation was then frozen and lyophilized for 24 hours. The dicumarol loading was determined in this formulation by a simple extraction protocol. Microspheres were incubated overnight in 2.5 N NaOH at 37° C. Upon dissolution, an aliquot of approximately 15 μg based on theoretical loading was added to 2.5 N NaOH to make a total volume of 800 μL. This mixture was agitated for 2 minutes and centrifuged for 2 minutes at 11,269 g.
The dicumarol loading was determined in all formulations by a simple extraction protocol. Microspheres were incubated overnight in 2.5 N NaOH at 37° C. Upon dissolution, an aliquot of approximately 15 μg based on theoretical loading was added to 2.5 N NaOH to make a total volume of 800 μL. This mixture was agitated for 2 minutes and centrifuged for 2 minutes at 11,269 g.

O=c1oc2ccccc2c(O)c1Cc1c(O)c2ccccc2oc1=O [Stock, Dicumarol]
particle size seen in SEM micrographs ([1]; FIG. 1): 10-20 microns
particle size seen in SEM micrographs ([1]; FIG. 7A): approximately 25 μm
bioavailability (in vivo; male, Sprague-Dawley): 90.1 ± 7.3%
Cmax (in vivo; male, Sprague-Dawley, po): 73 ± 6 µg/mL
Tmax (in vivo; male, Sprague-Dawley, po): 14 ± 2 h
plasma concentration reached (peak of plasma curve) (in vivo; male, Sprague-Dawley, po): 64 µg/mL
time after which the peak of the plasma curve was reached (in vivo; male, Sprague-Dawley, po): 3 h
AUC (in vivo; po): 2666 ± 206 µg·h/mL
mean particle diameter ([2]; based on volume statistics): 18.5 μm
Coulter Particle Analysis 25% < ([2]; volume calculations, 25% of population less than this size): 12.98 μm
Coulter Particle Analysis 50% < ([2]; volume calculations, 50% of population less than this size): 18.95 μm
Coulter Particle Analysis 75% < ([2]; volume calculations, 75% of population less than this size): 24.82 μm
Loading (drug loading) [3]: 100%
